Patent US9624239B2, “Protein kinase inhibitors” (Pharmascience Inc., priority 2011, dated 2017)

What was measured:
[1] = biological target: T1, histidine tagged recombinant human full-length Bruton Agammaglobulinemia Tyrosine Kinase (Btk) (Homo sapiens, UniProt Q06187); experiment: Btk kinase inhibition assay (fluorescence polarization, KinEASE FP Fluorescein Green); format: biochemical; details: 10 μM ATP, 250 μM substrate, 60 minutes, room temperature; Ki from IC50 by Cheng-Prusoff; read-out: ki50 (nM), Inhibition of Btk
T1 construct: recombinant human full-length Bruton Agammaglobulinemia Tyrosine Kinase (Btk); histidine tag
Protocol: Kinase Binding Btk and Lck Kinase Inhibition Assay
Fluorescence polarization-based kinase assays were performed in 384 well-plate format using histidine tagged recombinant human full-length Bruton Agammaglobulinemia Tyrosine Kinase (Btk) or histidine tagged recombinant Human Lymphocyte-Specific Protein Tyrosine Kinase (Lck) and a modified protocol of the KinEASE™ FP Fluorescein Green Assay supplied from Millipore. Kinase reaction were performed at room temperature for 60 minutes in presence of 250 μM substrate, 10 μM ATP and variable test article concentrations. The reaction was stopped with EDTA/kinease detection reagents and the polarization measured on a Tecan 500 instrument. From the dose-response curve obtained, the IC50 was calculated using Graph Pad Prisms® using a non-linear fit curve. The Km for ATP on each enzyme was experimentally determined and the Ki values calculated using the Cheng-Prusoff equation (see: Cheng Y, Prusoff W H. (1973) Relationship between the inhibition constant (K1) and the concentration of inhibitor which causes 50 percent inhibition (I50) of an enzymatic reaction”. Biochem Pharmacol 22 (23): 3099-108).
ki values are reported in Tables 2 and 3: • a—Less than 100 nM; b—less than 1000 nM; c—more than 1000 nM

mouse splenocytes = experiment: Splenic cell proliferation assay (anti-IgM stimulated B cell proliferation, Cell Titer-Glo); format: cell-based; details: Splenocyte; CD1 mouse splenocytes, 1 h pre-treatment, 2.5 ug/ml anti-IgM F(ab')2 for 72 h; read-out: EC50 (nM), Inhibition of splenic cell proliferation
Protocol: Splenic Cell Proliferation Assay
Splenocytes were obtained from 6 week old male CD1 mice (Charles River Laboratories Inc.). Mouse spleens were manually disrupted in PBS and filtered using a 70 μm cell strainer followed by ammonium chloride red blood cell lysis. Cells were washed, resuspended in Splenocyte Medium (HyClone RPMI supplemented with 10% heat-inactivated FBS, 0.5× non-essential amino acids, 10 mM HEPES, 50 uM beta mercaptoethanol) and incubated at 37° C., 5% CO2 for 2 h to remove adherent cells. Suspension cells were seeded in 96 well plates at 50,000 cells per well and incubated at 37° C., 5% CO2 for 1 h. Splenocytes were pre-treated in triplicate with 10,000 nM curves of Formula 1 compounds for 1 h, followed by stimulation of B cell proliferation with 2.5 ug/ml anti-IgM F(ab′)2 (Jackson ImmunoResearch) for 72 h. Cell proliferation was measured by Cell Titer-Glo Luminescent Assay (Promega). EC50 values (50% proliferation in the presence of compound as compared to vehicle treated controls) were calculated from dose response compound curves using GraphPad Prism Software.
EC50 values are reported in Table 4: • a—Less than 100 nM; b—less than 1000 nM; c—more than 1000 nM

T1 sequence (Q06187 whole entry): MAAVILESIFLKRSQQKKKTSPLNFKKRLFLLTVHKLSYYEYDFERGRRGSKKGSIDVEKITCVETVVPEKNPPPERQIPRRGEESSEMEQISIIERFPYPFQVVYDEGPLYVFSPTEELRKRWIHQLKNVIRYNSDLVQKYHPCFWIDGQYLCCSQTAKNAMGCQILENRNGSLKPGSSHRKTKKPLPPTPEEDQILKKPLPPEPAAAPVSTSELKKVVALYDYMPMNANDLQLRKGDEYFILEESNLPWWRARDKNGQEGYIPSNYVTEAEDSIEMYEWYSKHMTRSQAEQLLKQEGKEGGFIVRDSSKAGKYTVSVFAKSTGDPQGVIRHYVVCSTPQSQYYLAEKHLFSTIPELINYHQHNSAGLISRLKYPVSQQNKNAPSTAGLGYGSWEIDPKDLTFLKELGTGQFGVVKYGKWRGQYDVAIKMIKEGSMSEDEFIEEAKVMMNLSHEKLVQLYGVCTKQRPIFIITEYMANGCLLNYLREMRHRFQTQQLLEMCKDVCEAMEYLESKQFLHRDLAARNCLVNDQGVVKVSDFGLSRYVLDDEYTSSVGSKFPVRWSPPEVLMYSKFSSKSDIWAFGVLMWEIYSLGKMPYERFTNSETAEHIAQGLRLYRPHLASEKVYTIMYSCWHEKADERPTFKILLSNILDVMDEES

Structure (SMILES) | Ki [1] [nM] | EC50 (mouse splenocytes) [nM]
Nc1ncnc2c3c(n(-c4ccc(Oc5ccccc5)cc4)c12)CN(C(=O)OCc1ccccc1)C3 [Compound 5] | > 1000 | 
Nc1ncnc2c3c(n(-c4ccc(Oc5ccccc5)cc4)c12)CCN(C(=O)OCc1ccccc1)C3 [Compound 6] | > 1000 | 
Nc1ncnc2c3c(n(-c4ccc(Oc5ccccc5)cc4)c12)CCN(Cc1ccccc1)C3 [Compound 11] | > 1000 | 
Nc1ncnc2c3c(n(-c4ccc(Oc5ccccc5)cc4)c12)CCN(C(=O)c1ccccc1)C3 [Compound 16] | > 1000 | 
NCC(=O)N1Cc2c(n(-c3ccc(Oc4ccccc4)cc3)c3c(N)ncnc23)C1 [Compound 19] | > 1000 | 
CC1OCc2c1c1ncnc(N)c1n2-c1ccc(Oc2cccc(OCCN(C)C)c2)cc1 (centres unmarked) [Compound 48] | > 1000 | 
CC1OCc2c1c1ncnc(N)c1n2-c1ccc(Oc2cccc(OCCN3CCOCC3)c2)cc1 (centres unmarked) [Compound 51] | > 1000 | 
Nc1ncnc2c3c(n(-c4ccc(Oc5cccc(OCc6cccnc6)c5)cc4)c12)CCC3 [Compound 62] | < 100 | 100 to 1000
CC1OCc2c1c1ncnc(N)c1n2-c1ccc(Oc2cccc(OCc3ccc(C#N)cc3)c2)cc1 (centres unmarked) [Compound 64] | < 1000 | > 1000
Nc1ncnc2c3c(n(-c4ccc(Oc5ccccc5)cc4)c12)CS(=O)(=O)C3 [Compound 65] | > 1000 | > 1000
Nc1ncnc2c3c(n(-c4ccc(Oc5cccc(OCc6ccccc6)c5)cc4)c12)CCC3 [Compound 68] | < 100 | 100 to 1000
CC1OCc2c1c1ncnc(N)c1n2-c1ccc(Oc2cccc(N(C)C)c2)cc1 (centres unmarked) [Compound 70] | < 1000 | 100 to 1000
CC1OCc2c1c1ncnc(N)c1n2-c1ccc(Oc2ccc(C#N)cc2)cc1 (centres unmarked) [Compound 71] | > 1000 | > 1000
CC1OCc2c1c1ncnc(N)c1n2-c1ccc(Oc2cccnc2)cc1 (centres unmarked) [Compound 72] | > 1000 | > 1000
CC1OCc2c1c1ncnc(N)c1n2-c1ccc(Oc2cccc(OCCCN(C)C)c2)cc1 (centres unmarked) [Compound 73] | > 1000 | > 1000
CC1OCc2c1c1ncnc(N)c1n2-c1ccc(Oc2ccncc2)cc1 (centres unmarked) [Compound 74] | > 1000 | > 1000
CC1OCc2c1c1ncnc(N)c1n2-c1ccc(Oc2cccc(NS(C)(=O)=O)c2)cc1 (centres unmarked) [Compound 76] | < 1000 | > 1000
CC1OCc2c1c1ncnc(N)c1n2-c1ccc(Oc2cccc(OCCc3ccccc3)c2)cc1 (centres unmarked) [Compound 77] | < 100 | 100 to 1000
Cc1ccc(Oc2ccc(-n3c4c(c5ncnc(N)c53)C(C)OC4)cc2)cc1 (centres unmarked) [Compound 79] | < 1000 | > 1000
CC1OCc2c1c1ncnc(N)c1n2-c1ccc(Oc2cccc(NS(=O)(=O)c3ccccc3)c2)cc1 (centres unmarked) [Compound 80] | < 1000 | > 1000

Structure (SMILES) | Ki [1] [nM] | EC50 (mouse splenocytes) [nM]
CC1OCc2c1c1ncnc(N)c1n2-c1ccc(Oc2cccc(NS(=O)(=O)Cc3ccccc3)c2)cc1 (centres unmarked) [Compound 81] | < 100 | > 1000
CC1OCc2c1c1ncnc(N)c1n2-c1ccc(Oc2cccc(NC(=O)c3ccccc3)c2)cc1 (centres unmarked) [Compound 82] | < 100 | > 1000
CC1OCc2c1c1ncnc(N)c1n2-c1ccc(Oc2cccc(OCC(N)=O)c2)cc1 (centres unmarked) [Compound 83] | > 1000 | > 1000
CC1OCc2c1c1ncnc(N)c1n2-c1ccc(Oc2cccc(NC(=O)Cc3ccccc3)c2)cc1 (centres unmarked) [Compound 84] | < 100 | > 1000
CC1OCc2c1c1ncnc(N)c1n2-c1ccc(Oc2cccc(COc3ccccc3)c2)cc1 (centres unmarked) [Compound 85] | < 100 | 100 to 1000
Cc1nc(COc2cccc(Oc3ccc(-n4c5c(c6ncnc(N)c64)C(C)OC5)cc3)c2)no1 (centres unmarked) [Compound 87] | < 100 | > 1000
CC1OCc2c1c1ncnc(N)c1n2-c1ccc(Oc2ccccc2)nc1 (centres unmarked) [Compound 88] | > 1000 | 
CC1OCc2c1c1ncnc(N)c1n2-c1ccc(Oc2cccc(OCc3cccc(C#N)c3)c2)cc1 (centres unmarked) [Compound 89] | < 100 | 100 to 1000
Cc1nc(-c2cccc(Oc3ccc(-n4c5c(c6ncnc(N)c64)C(C)OC5)cc3)c2)cs1 (centres unmarked) [Compound 90] | < 100 | 100 to 1000
CC1OCc2c1c1ncnc(N)c1n2-c1ccc(Oc2cccc(N3CCOCC3)c2)cc1 (centres unmarked) [Compound 91] | < 1000 | 
CC1OCc2c1c1ncnc(N)c1n2-c1ccc(Oc2cccc(OCc3cccc(C(N)=O)c3)c2)cc1 (centres unmarked) [Compound 92] | < 100 | 100 to 1000
CC1OCc2c1c1ncnc(N)c1n2-c1ccc(Oc2cccc(OCc3cncn3C)c2)cc1 (centres unmarked) [Compound 93] | < 100 | 
CC1OCc2c1c1ncnc(N)c1n2-c1ccc(Oc2cccc(OCc3ccccc3F)c2)cc1 (centres unmarked) [Compound 94] | < 100 | 100 to 1000
CC1OCc2c1c1ncnc(N)c1n2-c1ccc(Oc2cccc(OCc3ccccc3C#N)c2)cc1 (centres unmarked) [Compound 96] | < 100 | < 100
CC1OCc2c1c1ncnc(N)c1n2-c1ccc(Oc2cccc(OCc3cccc(F)c3)c2)cc1 (centres unmarked) [Compound 99] | < 100 | 100 to 1000
CC1OCc2c1c1ncnc(N)c1n2-c1ccc(Oc2cccc(OCc3ccccc3C(F)(F)F)c2)cc1 (centres unmarked) [Compound 100] | < 100 | < 100
Cc1nc(COc2cccc(Oc3ccc(-n4c5c(c6ncnc(N)c64)C(C)OC5)cc3)c2)cs1 (centres unmarked) [Compound 102] | < 100 | 100 to 1000
COc1ccc(COc2cccc(Oc3ccc(-n4c5c(c6ncnc(N)c64)C(C)OC5)cc3)c2)cc1 (centres unmarked) [Compound 104] | < 100 | 100 to 1000
CC(=O)Nc1ccc(COc2cccc(Oc3ccc(-n4c5c(c6ncnc(N)c64)C(C)OC5)cc3)c2)cc1 (centres unmarked) [Compound 109] | < 1000 | 

Continued, in another order:

Ki [1] [nM] | Structure (SMILES) | EC50 (mouse splenocytes) [nM]
> 1000 | Nc1ncnc2c3c(n(-c4ccc(Oc5ccccc5)cc4)c12)CN(Cc1ccccc1)C3 [Compound 10] | 
> 1000 | Nc1ncnc2c3c(n(-c4ccc(Oc5ccccc5)cc4)c12)CCN(S(=O)(=O)c1ccccc1)C3 [Compound 12] | 
> 1000 | NCC(=O)N1CCc2c(c3ncnc(N)c3n2-c2ccc(Oc3ccccc3)cc2)C1 [Compound 17] | 
< 1000 | CC1OCc2c1c1ncnc(N)c1n2-c1ccc(Oc2cccc(N)c2)cc1 (centres unmarked) [Compound 47] | 
> 1000 | CC1OCc2c1c1ncnc(N)c1n2-c1ccc(Oc2cccc(OCCN3CCCC3)c2)cc1 (centres unmarked) [Compound 52] | 
< 1000 | CC(=O)Nc1cccc(Oc2ccc(-n3c4c(c5ncnc(N)c53)C(C)OC4)cc2)c1 (centres unmarked) [Compound 55] | 
> 1000 | Nc1ncnc2c3c(n(-c4ccc(Oc5ccccc5)cc4)c12)CSC3 [Compound 63] | > 1000
< 1000 | CCNc1cccc(Oc2ccc(-n3c4c(c5ncnc(N)c53)C(C)OC4)cc2)c1 (centres unmarked) [Compound 66] | 100 to 1000
< 100 | CC1OCc2c1c1ncnc(N)c1n2-c1ccc(Oc2cccc(OCC3CCOCC3)c2)cc1 (centres unmarked) [Compound 67] | > 1000
< 100 | CC1OCc2c1c1ncnc(N)c1n2-c1ccc(Oc2cccc(NCc3ccccc3)c2)cc1 (centres unmarked) [Compound 69] | > 1000
< 100 | CC1OCc2c1c1ncnc(N)c1n2-c1ccc(Oc2cccc(OCc3ccccn3)c2)cc1 (centres unmarked) [Compound 75] | > 1000
< 1000 | CC1OCc2c1c1ncnc(N)c1n2-c1ccc(Oc2cccc(O[C@H](C)c3ccccc3)c2)cc1 (some centres unmarked) [Compound 78] | > 1000
< 100 | CC1OCc2c1c1ncnc(N)c1n2-c1ccc(Oc2cccc(O[C@@H](C)c3ccccc3)c2)cc1 (some centres unmarked) [Compound 86] | > 1000
< 100 | CC1OCc2c1c1ncnc(N)c1n2-c1ccc(Oc2cccc(OCc3ccc(Cl)cc3)c2)cc1 (centres unmarked) [Compound 95] | 100 to 1000
< 100 | CC1OCc2c1c1ncnc(N)c1n2-c1ccc(Oc2cccc(OCc3cccc(Cl)c3)c2)cc1 (centres unmarked) [Compound 97] | 100 to 1000
< 100 | CC1OCc2c1c1ncnc(N)c1n2-c1ccc(Oc2cccc(OCc3ccc(C(N)=O)cc3)c2)cc1 (centres unmarked) [Compound 98] | 
< 1000 | CC1OCc2c1c1ncnc(N)c1n2-c1ccc(Oc2cccc(OCc3ccccc3C(N)=O)c2)cc1 (centres unmarked) [Compound 101] | 
< 100 | COc1cccc(COc2cccc(Oc3ccc(-n4c5c(c6ncnc(N)c64)C(C)OC5)cc3)c2)c1 (centres unmarked) [Compound 103] | 100 to 1000
